Laboratory results: article PMC6156755, “Using Human Plasma as an Assay Medium in Caco-2 Studies Improves Mass Balance for Lipophilic Compounds” (Pharmaceutical Research, 2018)

Experiments:
[1] = Human plasma protein binding (ultracentrifugation or rapid equilibrium dialysis); format: in vitro ADME; settings: pH 7.4; neat human plasma, 37°C, concentration comparable to Caco-2 assay; read-out: fu (fraction unbound in plasma)
Description: Binding was assessed using one of two methods: ultracentrifugation ([31]) using neat human plasma or rapid equilibrium dialysis (RED) using either neat or diluted plasma. […] To allow analysis with a single calibration curve, the total plasma and protein-free supernatant samples were ‘matrix-matched’ by taking aliquots of protein-free supernatant samples and adding to fresh tubes containing an equal volume of blank plasma, or taking aliquots of the total plasma samples and adding to fresh tubes containing an equal volume of Dulbecco’s phosphate-buffered saline (DPBS). In this way, the final composition of both the protein-free supernatant samples and the total plasma samples were ‘matched’ prior to the analysis against a common calibration curve prepared in a 1:1 mixture of human plasma and DPBS. All samples were then stored frozen at −80°C until analysis.
The holding plate was then placed on a plate shaker (set at 800 rpm; ThermoMixer C, Eppendorf) and maintained at 37°C under a 2% CO2 atmosphere. The dialysis was conducted for 6 h, assuming steady state was achieved by the end of this period ([32]). Samples were then removed from both the donor and dialysate chambers of each RED insert. […] Samples were matrix matched as described above (but using PBS buffer instead of DPBS) and stored at −80°C until analysis.
For the more lipophilic compounds with potential for very high binding, the RED method was used with diluted plasma to increase the chance of detecting concentrations in the dialysate samples. Diluted human plasma (10% v/v in pH 7.4 phosphate buffered saline) was spiked with each compound (at 10% of the concentration used for the Caco-2 experiment with neat plasma) and binding conducted as described above. The binding in neat plasma was then calculated by correcting for the dilution as described below.
For binding measurements in neat plasma by ultracentrifugation, the fraction unbound (fu) was calculated from the ratio of the average unbound concentration in protein free supernate (Cunbound) to the average total concentration in non-centrifuged plasma (Ctotal). The standard deviation (SD) for the fu value was calculated using the propagation of errors approach as described previously ([33]). For binding measurements using the RED method in neat plasma, fu was calculated from the ratio of the dialysate to total plasma concentration for each dialysis unit and the mean and SD calculated for replicate units (n = 3).
For RED binding assessments using 10% plasma, the fu − diluted for individual dialysis units was calculated in the same way as described above.

in vitro = settings: human
[2] = Caco-2 permeability assay with pH 7.4 buffer or human plasma in both chambers; settings: human
Caco-2 cell monolayer = test: as above
P-gp = test: as above; settings: human, Caco-2, pH 7.4, with verapamil 100 µM, Papp B-A, + 100 μM verapamil

C[C@H]1O[C@@H](O[C@H]2[C@@H](O)C[C@H](O[C@H]3[C@@H](O)C[C@H](O[C@H]4CC[C@@]5(C)[C@H](CC[C@@H]6[C@@H]5C[C@@H](O)[C@]5(C)[C@@H](C7=CC(=O)OC7)CC[C@]65O)C4)O[C@@H]3C)O[C@@H]2C)C[C@H](O)[C@@H]1O [^3H-Digoxin, [^3H(G)]-digoxin]
fraction unbound [1]: 0.61 | Papp A→B (in vitro; Caco-2, pH 7.4, Papp A-B): 4.7 ± 0.15 ×10⁻⁶ cm/s | Papp B→A (in vitro; Caco-2, pH 7.4, Papp B-A): 26 ± 1.5 ×10⁻⁶ cm/s | Papp A→B ([2]; Caco-2, pH 7.4, Papp A-B, buffer pH 7.4 in both chambers): 2.7 ± 0.21 ×10⁻⁶ cm/s | Papp B→A ([2]; Caco-2, pH 7.4, Papp B-A, buffer pH 7.4 in both chambers): 18 ± 0.58 ×10⁻⁶ cm/s | Papp A→B ([2]; Caco-2, pH 7.4, with verapamil 100 µM, Papp A-B, buffer, + 100 μM verapamil): 4.6 ± 0.46 ×10⁻⁶ cm/s | Papp A→B ([2]; Caco-2, pH 7.4, with verapamil 100 µM, Papp A-B, plasma, + 100 μM verapamil, corrected for fu): 6.2 ± 1 ×10⁻⁶ cm/s | Mass balance B-A (Caco-2 cell monolayer; buffer pH 7.4 in both chambers): 100 ± 0% | Mass balance B-A (Caco-2 cell monolayer; buffer, + 100 μM verapamil): 100 ± 0.58% | Mass balance A-B (Caco-2 cell monolayer; buffer, + 100 μM verapamil (P-gp inhibitor)): 99 ± 0.58% | Mass balance B-A (Caco-2 cell monolayer; human plasma in both chambers): 100 ± 5.8% | Mass balance A-B (Caco-2 cell monolayer; plasma, + 100 μM verapamil): 96 ± 2.1% | Mass balance B-A (Caco-2 cell monolayer; plasma, + 100 μM verapamil): 99 ± 0.58% | Papp B→A (P-gp; buffer): 5.8 ± 0.53 ×10⁻⁶ cm/s | Papp B→A (P-gp; plasma, corrected for fu): 7.4 ± 0.49 ×10⁻⁶ cm/s
